According to patent US20040248918A1, “N-phenyl-2-pyrimidine-amine derivatives and process for the preparation thereof” (IL YANG PHARM. CO., LTD., priority 2003, published 2004):
Values after ≈ are worked out from the molar mass of the structure shown.

Assays:
[1] = system: rectal cancer cell of CMT-93; experiment: Growth inhibition of CMT-93 (MTT); format: cell-based
Procedure: (§1) In the present experiment, the inhibitory activity of the compound of formula (1) was determined against the growth of K562 cancer cell. First, the cells were allowed to stand in RPMI (Roswell Park Memorial Institute)-1640 medium containing 10% (v/v) fetal bovine serum in an incubator of 37° C. and 5% by volume of CO2. The cancer cells (1000 cells) were transferred to a 96-well plate, and the test compound was diluted. The plate was allowed to stand under the above mentioned conditions for 2 days. After this treatment, to the cells was added 0.2% MTT (3-[4,5-dimethylthiazol-2-yl]-2,5-diphenyltetrazolium bromide) solution, and the resulting mixture was allowed to stand under the constant temperature-condition for 4 hours. The supernatant was removed to leave the resulting crystal. DMSO was added to dissolve the crystal, and the absorbance of the solution was measured at 540 nm. IC50 value was calculated using a computer system according to the following formula: […]
(§2) The test was performed according to the same procedure as Experiment 1.

[2] = system: pancreatic cancer cell of CAPAN-2; experiment: Growth inhibition of CAPAN-2 (MTT); format: cell-based; settings: CAPAN-2
[3] = system: colon cancer cell of SNU-C1; experiment: Growth inhibition of SNU-C1 (MTT); format: cell-based
[4] = system: cervical cancer cell of HeLa229; experiment: Growth inhibition of HeLa 229 (MTT); format: cell-based
[5] = system: bladder cancer cell of HT-1197; experiment: Growth inhibition of HT-1197 (MTT); format: cell-based
Procedure: as §1, §2

[6] = system: pancreatic cancer cell of PANC-1; experiment: Growth inhibition of PANC-1 (MTT); format: cell-based
[7] = system: encephalophyma cell of A172; experiment: Growth inhibition of A172 (MTT); format: cell-based
Procedure: as §1, §2

[8] = Comparative pharmacokinetic test in white rats; format: in vivo, white rats (Sprague-Dawley); settings: male, Sprague-Dawley, plasma, po, rat, 50 mg/kg, P.O.
Procedure: On the previous day to the test, white rats (Sprague-Dawley, 250˜280 g, male) were put under anesthesia by pentobarbital sodium (50 mg/kg, I.P.). Then, cannula (polyethylene tube; diameter: 0.58mm) was introduced into the rats via the carotid artery and jugular vein, and drawn out to the back. After the operation, the rats were fasted for 16 hours and used for the test. […] Blood was collected in 0, 0.5, 1, 1.5, 2, 2.5, 3, 3.5, 4, 4.5, 5, 6, 8, 10, 12, and 24 hours from the carotid artery. The samples for HPLC analysis were prepared using the collected blood according to the following procedure and were analyzed under the following conditions.
Blood was collected by an amount of 0.5 ml at each prearranged time and centrifuged at 15000 rpm for 7 minutes to separate […] of plasma. In order to remove proteins, MeOH was added in an amount of […], twice as much as the amount of plasma, and the mixture was shaken for 30 minutes. The mixture was centrifuged again at 15000 rpm for 5 minutes to give protein free supernatant, which was then analyzed by HPLC.
Flow rate: 1.0 ml/min, UV detection at 267 nm
Column: 4.6×150 mm, 5C18-AR-II, COSMOSIL
Eluent: Mixture of ion pair sample (420 ml) and MeOH (580 ml)
Ion pair sample: 7.5 g of 1-octanesulfonic acid was dissolved in 800 ml of water. The resulting mixture was adjusted to pH 2.5 using phosphoric acid and diluted with water to 1000 ml volume.
Here, the pharmacokinetic parameters are Tmax (time to reach the maximum blood concentration), Cmax (maximum blood concentration), AUC (area under the curve of time-blood concentration), and T1/2 (half time in blood), and the AUC was calculated under trapezoid rule (see Tables 6, 7 and FIGS. 1, 2).

[9] = system: acute myelogenous leukemia cell (KG-1); experiment: Growth inhibition of KG-1 (MTT); format: cell-based
lung cancer cell (A549) = experiment: Growth inhibition of A549 (MTT); format: cell-based; settings: Homo sapiens
Procedure: as §1, §2

[10] = Acute toxicity test in mice (oral administration); settings: both sexes, ICR, mouse, in vivo, 2000 mg/kg; mice, oral
Procedure: (§3) In order to determine the acute toxicity of the compound of the present invention when the compound is orally administered, mice (ICR, 24˜26 g) were fasted for 16 hours. One group consists of 10 males and 10 females. The first group is the control group and physiological saline was administered per oral to this group. The compounds of Examples 2 and 4 were orally administered in a dosage of 2000 mg/kg, the maximum dosage in acute toxicity test, to each test group. […] On the last day of the test, 14th day from the start, the mice were subjected to an autopsy in order to examine changes of the internal organs. […] This means that the compounds of the present invention including those of Examples 2 and 4 are safe in the aspect of acute toxicity.

mice (ICR) = experiment: Acute toxicity test in mice (oral administration); settings: mouse, in vivo, po, 2000 mg/kg
Procedure: as §3

[11] = system: L1210 cancer cell (leukemia cell line); experiment: Growth inhibition of L1210 cancer cell (MTT); format: cell-based; settings: Mus musculus
Procedure: as §1
In the present experiment, the inhibitory activity of the compound of formula (1) was determined against the growth of L1210 cancer cell. The test was performed according to the same procedure as Experiment 1.

[12] = system: U937 cancer cell (monocyte like leukemia cell line); experiment: Growth inhibition of U937 cancer cell (MTT); format: cell-based
Procedure: as §1
In the present experiment, the inhibitory activity of the compound of formula (1) was determined against the growth of U937 cancer cell. The test was performed according to the same procedure as Experiment 1.

[13] = system: breast cancer cell (MCF-7); experiment: Growth inhibition of MCF-7 (MTT); format: cell-based; settings: Homo sapiens, MCF7
Procedure: as §1, §2

[14] = system: oral epithelial cancer cell (KB); experiment: Growth inhibition of KB (MTT); format: cell-based; settings: Homo sapiens
Procedure: as §1, §2

[15] = system: gastric cancer cell (KATO III); experiment: Growth inhibition of KATO III (MTT); format: cell-based; settings: Homo sapiens
Procedure: as §1, §2

[16] = system: prostatic cancer cell (DU-145); experiment: Growth inhibition of DU-145 (MTT); format: cell-based; settings: Homo sapiens
Procedure: as §1, §2

[17] = system: K562 cancer cell (CML cell line); experiment: Growth inhibition of K562 cancer cell (MTT); format: cell-based; settings: Homo sapiens, K562, 48 h, K562, 2 days, MTT; read-out: IC50
Procedure: In the present experiment, the inhibitory activity of the compound of formula (1) was determined against the growth of K562 cancer cell. First, the cells were allowed to stand in RPMI (Roswell Park Memorial Institute)-1640 medium containing 10% (v/v) fetal bovine serum in an incubator of 37° C. and 5% by volume of CO2. The cancer cells (1000 cells) were transferred to a 96-well plate, and the test compound was diluted. The plate was allowed to stand under the above mentioned conditions for 2 days. […] The supernatant was removed to leave the resulting crystal.

hepatoma cell (SNU-182) = experiment: Growth inhibition of SNU-182 (MTT); format: cell-based; settings: Homo sapiens
Procedure: as §1, §2

[18] = system: hematologic malignancy cell (HL-60); experiment: Growth inhibition of HL-60 (MTT); format: cell-based; settings: Homo sapiens
[19] = system: ovarian cancer cell (SK-OV-03); experiment: Growth inhibition of SK-OV-03 (MTT); format: cell-based
Procedure: as §1, §2

[20] = system: lymphoma cell (RPMI-6666); experiment: Growth inhibition of RPMI-6666 (MTT); format: cell-based
Procedure: as §1, §2

SMILES: N.N.[Cl][Pt][Cl] [Cisplatin, cisplatin, reference compound]
- IC50 [1]: 0.67 µg/mL
- IC50 [2]: 496.9 µg/mL
- IC50 [3]: 302 µg/mL
- IC50 [4]: 0.9 µg/mL
- IC50 [5]: 7.5 µg/mL
- IC50 [6]: 41.55 µg/mL
- IC50 [7]: 5.7 µg/mL

SMILES: CS(=O)(=O)O.Cc1ccc(NC(=O)c2ccc(CN3CCCN(C)CC3)cc2)cc1Nc1nccc(-c2cccnc2)n1 [Example 2, 4-(4-methylhomopiperazin-1-ylmethyl)-N-[4-methyl-3-(4-(pyridin-3-yl)pyrimidin-2-yl)aminophenyl]benzamide methanesulfonate]
- Cmax [8]: 2200 ng/mL
- Tmax [8]: 1.5 h
- AUC ([8]; trapezoid rule): 26200 ng·h/mL
- IC50 as fraction of that of Imatinib mesylate [9]: ¼
- IC50 ([9]; Homo sapiens): 7.31 µg/mL
- IC50 (lung cancer cell (A549)): 27.6 µg/mL
- LD50 at 14 days [10]: ≥ 2000 mg/kg
- Clinical conditions and autopsy (mice (ICR)): neither abnormal response nor specific autopsy result was observed
- Mortality during the test period (mice (ICR)): no mouse died
- IC50 [11]: 7.6 µg/mL
- Improved activity versus Imatinib mesylate [12]: 40 times
- IC50 ([12]; Homo sapiens, U-937): 0.7 µg/mL
- IC50 [13]: 36.2 µg/mL
- IC50 [14]: 31.6 µg/mL
- IC50 [15]: 30 µg/mL
- IC50 [16]: 30.3 µg/mL
- IC50 [17]: 1.2 µg/mL
- IC50 (hepatoma cell (SNU-182)): 24.7 µg/mL
- IC50 [18]: 17.7 µg/mL
- IC50 [19]: 38 µg/mL
- IC50 as fraction of that of Imatinib mesylate [20]: ½
- IC50 ([20]; Homo sapiens): 14.7 µg/mL

SMILES: O=c1[nH]cc(F)c(=O)[nH]1 [Example 5-FU, 5-Fu, reference compound]
- IC50 [1]: 1.1 µg/mL (≈ 8.46 µM)
- IC50 [2]: 1000> μg/ml
- IC50 [3]: 95.3 µg/mL (≈ 733 µM)
- IC50 [4]: 81.03 µg/mL (≈ 623 µM)
- IC50 [5]: 98.5 µg/mL (≈ 757 µM)
- IC50 [6]: 553.8 µg/mL (≈ 4260 µM)
- IC50 [7]: 99 µg/mL (≈ 761 µM)
